Earlier results, collected in patent US20220378861A1, “COMPOSITIONS AND METHODS FOR DELIVERING CANNABINOIDS USING MICRONEEDLE DEVICES TO THE SKIN” (AQUAVIT PHARMACEUTICALS, INC., priority 2019, published 2022).

Conditions: oral absorption, after extensive first pass liver metabolism

CCCCCc1cc(O)c2c(c1)OC(C)(C)[C@@H]1CCC(C)=C[C@@H]21 [THC, tetrahydrocannabinol]
bioavailability to the systemic circulation: 6%
